Source: patent US7998924B2, “Compounds that bind to p185 and methods of using the same” (The Trustees of The University of Pennsylvania, priority 2001, dated 2011)
Like-named read-outs stand apart in the source and are kept apart here.

Columns and labels:
[1] = Peptide solubility in PBS buffer at 1 mg/mL; format: physicochemical; details: pH 7.4, 1 mg/mL
Experimental: These peptides could be readily dissolved in the PBS buffer, pH 7.4, at 1 mg/mL concentration without adjustment of pH.

T6-17 cells = test system: T6-17 cells
Experimental: (See reference 46 below.) HER2-expressing transformed tumor cells (T6-17) were used for this purpose. […] Each value represents an average of at least four samples.
The MTT assay has been used for measuring cell growth as previously described in ref 446. Briefly, T6-17 cells were seeded in 96-well plates overnight in DMEM containing 10% FBS (1000 per well). T6-17 is derived from NIH3T3 by overexpressing the human HER2 receptor. Cells were cultured in 100 μL of fresh medium containing 1 μg/mL of peptides for 48 h. […] A total of 25 μL of MTT solution (5 mg/mL in PBS) was added to each well, and after 2 h of incubation at 37° C., 100 μA of the extraction buffer (20% w/v of SDS, 50% N,N-dimethyl formamide, pH 4.7) were added. After an overnight incubation at 37° C., the optical density at 600 rim was measured using an ELISA reader.

HER2 receptor [2] = biological target: T1, HER2 receptor (Homo sapiens, UniProt P04626); assay: Biacore (surface plasmon resonance) binding of peptides to immobilized HER2
T1 construct: Recombinant purified HER2 receptor composed of the ectodomain of HER2 fused to the Fc of human IgG; purchased Xcyte Therapeutics, Seattle, Wash; (provided by Dr. Che Law; a gift, not a catalogue product)
Source text: Binding of AHNP has been studies by means of surface plasmon resonance (Biacore) technology. In Biacore experiments, one of the interacting molecules (termed the ligand) is immobilized on the sensor surface, and the other interactant (termed the analyte) is continuously flown over that surface in a micro-flow cell. The interaction between the ligand and the analyte are monitored using a light source that is reflected at the immobilized chip. Binding of the analyte to the immobilized ligand changes the resonance angle of the reflected light due to changes in the refractive index of the surface. The response is plotted in real time in the form of sensorgram curves. The advantage with this approach is its sensitivity, ease of use, and ability to perform experiments with few microgram quantities of proteins and peptides. In addition, the kinetic binding studies reveal association and disassociation rates of the analyte which may be more relevant for understanding the pharmacokinetics of drug-receptor interactions.
Binding experiments were performed with the surface plasmon resonance based biosensor instrument Biacore 3000 (Biacore AB, Uppsala, Sweden) at 25° C. Recombinant purified HER2 receptor composed of the ectodomain of HER2 fused to the Fc of human IgG was provided by Dr. Che Law, Xcyte Therapeutics, Seattle, Wash. Immobilization of HER2 in the sensor surface was performed following the standard amine coupling procedure according to manufacturer's instructions. Briefly, 35 pit of a solution containing 0.2M N-ethyl-N-(dimethylaminopropyl) carbodiimide (EDC) and 0.05 M N-hydroxysuccinimide (NHS) were injected at a flow rate of 5 μL/min to activate carboxyl groups on the sensor chip surface. HER2 (40 ng/mL in 10 mM NaOAc buffer, pH 5.0) was flowed over the chip surface at a flow rate of 20 μL/min until the desired level bound protein was reached. Unreacted protein was washed out and unreacted activated groups were blocked by the injection of 35 μL of 1 M ethanolamine at 5 μL/min. […] A reference surface was generated simultaneously under the same conditions but without HER2 injection and used as a blank to correct for instrument and buffer artifacts. Peptides were injected at variable concentrations at 20 μL/min flow rate and binding to the HER2 receptor immobilized on the chip was monitored in real time. Each sensorgram consists of an association phase (first 240 s), reflecting binding of the injected peptide to the receptor, followed by a dissociation phase (300 s), during which the running buffer is passed over the chip and the bound peptide is being washed off the receptor surface.

HER2 receptor [3] = biological target: T1, HER2 receptor; assay: Biacore competition: AHNP preinjection inhibits rhumAb 4D5 binding to immobilized HER2
Experimental: It was shown earlier that the AHNP peptide can mimic some functions of the anti-HER2/neu antibody, rhumAb 4135 in vitro and in vivo (see reference 40 below). […] To that end, injections of AHNP at variable concentrations (from 0 to 90 μM) were followed by injections of rhumAb 4135 at a constant 1 nM concentration, using the “Coinject” mode of the Biacore instrument.
Binding experiments were performed with the surface plasmon resonance based biosensor instrument Biacore 3000 (Biacore AB, Uppsala, Sweden) at 25° C. Recombinant purified HER2 receptor composed of the ectodomain of HER2 fused to the Fc of human IgG was provided by Dr. Che Law, Xcyte Therapeutics, Seattle, Wash. Immobilization of HER2 in the sensor surface was performed following the standard amine coupling procedure according to manufacturer's instructions. Briefly, 35 pit of a solution containing 0.2M N-ethyl-N-(dimethylaminopropyl) carbodiimide (EDC) and 0.05 M N-hydroxysuccinimide (NHS) were injected at a flow rate of 5 μL/min to activate carboxyl groups on the sensor chip surface. HER2 (40 ng/mL in 10 mM NaOAc buffer, pH 5.0) was flowed over the chip surface at a flow rate of 20 μL/min until the desired level bound protein was reached. […] Peptides were injected at variable concentrations at 20 μL/min flow rate and binding to the HER2 receptor immobilized on the chip was monitored in real time. […]

T1 sequence (P04626 23-652 limits assumed): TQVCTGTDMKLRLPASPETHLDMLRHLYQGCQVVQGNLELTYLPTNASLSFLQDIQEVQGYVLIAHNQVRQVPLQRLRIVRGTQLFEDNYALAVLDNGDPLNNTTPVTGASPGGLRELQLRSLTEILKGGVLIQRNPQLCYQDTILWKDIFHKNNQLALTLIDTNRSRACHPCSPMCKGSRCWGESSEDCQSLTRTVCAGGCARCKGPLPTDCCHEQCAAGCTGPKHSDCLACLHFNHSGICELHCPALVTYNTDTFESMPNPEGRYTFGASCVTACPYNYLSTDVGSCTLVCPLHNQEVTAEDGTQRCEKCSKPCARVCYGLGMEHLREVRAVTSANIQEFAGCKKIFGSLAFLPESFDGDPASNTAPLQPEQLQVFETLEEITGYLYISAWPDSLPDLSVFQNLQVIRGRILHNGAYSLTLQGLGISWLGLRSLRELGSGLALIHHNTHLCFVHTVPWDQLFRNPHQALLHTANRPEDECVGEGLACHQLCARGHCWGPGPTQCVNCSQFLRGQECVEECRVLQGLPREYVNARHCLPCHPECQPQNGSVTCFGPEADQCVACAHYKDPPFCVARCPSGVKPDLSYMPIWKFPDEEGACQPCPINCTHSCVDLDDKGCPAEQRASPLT

CSCC[C@H](NC(=O)[C@H](Cc1ccc(O)cc1)NC(=O)[C@@H]1CSSC[C@H](NC(=O)[C@@H](N)Cc2ccccc2)C(=O)N[C@@H](CC(=O)O)C(=O)NCC(=O)N[C@@H](Cc2ccccc2)C(=O)N[C@@H](Cc2ccc(O)cc2)C(=O)N[C@@H](C)C(=O)N1)C(=O)N[C@@H](CC(=O)O)C(=O)N[C@H](C(N)=O)C(C)C [Peptide 1]
solubility [1]: < 1000 µg/mL | % inhibition of T6-17 cell proliferation in MTT assays (T6-17 cells; 1 μg/mL of peptides for 48 h): 35.5% | inhibition of growth of T6-17 cells (in words) (T6-17 cells; 0.01 to 10 μg/mL): dose-dependently | koff (HER2 receptor [2]): 0.000453 s⁻¹ | kon (HER2 receptor [2]): 1410 M⁻¹ s⁻¹ | receptor-binding affinity (in words) (HER2 receptor [2]; Biacore): submicromolar | Kd (HER2 receptor [2]; Biacore, immobilized HER2, 25° C., read-out: binding to HER2 KD): 320 nM | koff (HER2 receptor [2]; read-out: binding to HER2 koff): 0.000453 s⁻¹ | kon (HER2 receptor [2]; read-out: binding to HER2 kon): 1410 M⁻¹ s⁻¹ | IC50 (HER2 receptor [3]): 3400 nM
